Where two headings read alike, the source gives them in different places.
Experiments:
[1] = test system: Calcium^2+ Channel; experiment: Calcium^2+ Channel Mobilization Inhibition Assay; format: cell-based; conditions: cell type not stated
Description: Polymorphonuclear leukocytes (PMNa), gastric glands, GH3 cells, A431 cells, spleen cells, human keratinocytes corneal cells, etc. were loaded with the Ca^2+ sensitive fluorescent dye, Fura-2. The appropriate cell type was chosen and the potency and efficacy of the anti-inflammatory furanones on calcium mobilization, calcium channel inhibition was quantitated. The methods used for A431 cells listed below are representative of those used for other cells.
A431 cells were detached using a 5-10 min trypsin-EDTA treatment whereas GH3 cells were treated 2 to 5 min with a 1% pancreatin solution. Cells were immediately washed twice in a 20 mM HEPES buffer (pH 7.4) containing 120 mM NaCl, 6 mM KCl, 1 mM MgSO4, 1 mg/ml glucose and 1 mg/ml pyruvate and 1.4 mM calcium (medium A). Approximately 5×10^6 cells were suspended in medium A and incubated with 4uM fura-2-AM for 15 min at 37° C.
After washing the fura-2 loaded cells, the uptake of dye was checked using fluorescence microscopy and found to be evenly distributed in the cytosol of all cells. Fluorescence was continuously recorded with a Perkin-Elmer LS-5 spectrofluorometer. The excitation wavelength was set at 340 nm and emission wavelength set at 500 nm. The cell suspension was continually stirred, maintained at 37° C. and equilibrated for approximately 5 min before addition of various agents. [Ca^2+ i was calculated using the following formula: [formula]
All fluorescence values were measured relative to a EGTA-quenched signal determined as follows: F was the relative fluorescence measurement of the sample. Fmax was determined by lysing the cells with digitonin (100 ug/ml) in DMSO. After Fmax was determined the pH was adjusted to 8, with NaOH and Ca^2+ chelated with 3 mM EGTA to totally quench the fura-2 signal and obtain Fmin.
When quin-2- was used, cells were incubated with 10 uM quin-2- at 37° C. for 1 hour, washed and then used.

[2] = molecular target: bee venom phospholipase A2 (Apis mellifera, UniProt P00630); experiment: biochemical; conditions: pH 7.4
Chain of bee venom phospholipase A2 (P00630 34-167 limits assumed): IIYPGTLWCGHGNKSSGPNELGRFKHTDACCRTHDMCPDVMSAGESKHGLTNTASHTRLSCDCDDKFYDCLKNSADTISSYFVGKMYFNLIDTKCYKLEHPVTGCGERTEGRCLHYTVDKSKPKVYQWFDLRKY

[3] = KCl induced, read-out: IC50, Calcium^2+ Channel Mobilization Inhibition Assay, KCl induced
[4] = TRH induced, read-out: IC50, Calcium^2+ Channel Mobilization Inhibition Assay, TRH induced

SMILES | IC50 [1, 3] | IC50 [1, 4] | IC50 [2]
CCCCCCCCCCCCC(OC(C)=O)C1=CC(=O)OC1(C)O (stereo not shown) [Compound 1, 4-(1-Acetoxytridecyl)-5-hydroxy-5-methyl-2-furanone] | 7 µM | 2.5 µM | –
CCCCCCCCCCCCC(OC(C)=O)C1=C(C)C(=O)OC1O (stereo not shown) [Compound 2, 4-(1-Acetoxytridecyl)-3-methyl-5-hydroxy-2(5H)-furanone] | – | – | > 1 µM
CCCCCCCCCCCCC(OC(=O)Nc1ccccc1)C1=CC(=O)OC1(C)O (stereo not shown) [Compound 4, 5-Methyl-5-hydroxy-4-(1-phenylcarbamoyloxy)tridecyl-2-furanone] | 0.8 µM | 0.5 µM | –
CC1=C(CC/C(C)=C/CCC2=CCC(C3=CC(=O)OC3O)OC2O)C(C)(C)CCC1 (stereo not shown) [manoalide, reference compound] | 0.8 µM | 0.6 µM | –
